Measured values as given in patent publication US20250136563A1, “THIADIAZOLONE DERIVATIVES USEFUL AS AMPK ACTIVATOR” (Betagenon AB, priority 2021, published 2025).
Entries after “also recorded” stand apart in the source; their conditions may differ. Structures can show the parent of a compound that is named as a salt. Where two headings read alike, the source gives them in different places.

How the values were obtained:
[1] = Stability in buffers pH 1.20, 7.40 and 9.20 (Examples 26 and 27)
Description: (§1) The stability of Compound 17 was assessed in buffers with pH 1.20, 7.40 and 9.20. The pH 1.20 study was conducted using an HCl buffer. A phosphate buffer was used for the pH 7.40 medium, and an alkaline borate buffer was used for the pH 9.20 medium.
(§2) HCl buffer—Potassium chloride (1.491 g) was dissolved in 100 mL of Ultrapure water type-1 to get 0.2 M KCl solution. About 50 mL of 0.2 M KCl was taken in a beaker and the pH was adjusted to 1.20 using 0.2 M HCl solution. The final volume was made up to 200 mL using Ultrapure water type-1 and stored at room temperature (22±3° C.).
(§3) Phosphate buffer—Potassium phosphate monobasic (2.722 g) was dissolved in 100 mL of Ultrapure water type-1 to get 0.2 M solution. About 50 mL of 0.2 M solution was taken in a beaker and the pH was adjusted to 7.40 using 0.2 M NaOH solution. The final volume was made up to 200 mL using Ultrapure water type-1 and stored at room temperature (22±3° C.).
(§4) Alkaline borate buffer—Boric acid (1.237 g) and potassium chloride (1.491 g) were dissolved in 100 mL of Ultrapure water type-1 to get 0.2 M solution. About 50 mL of 0.2 M solution was taken in beaker and the pH was adjusted to 9.20 using 0.2 M NaOH solution. The final volume was made up to 200 mL using Ultrapure water type-1 and stored at room temperature (22±3° C.).
(§5) 5 μM solutions of Compound 17 in each buffer were prepared with 5 mM DMSO stock solutions. The solutions were incubated at 22 t 3° C. for 120 minutes, with shaking at 400 rpm using a thermomixer.
(§6) After 0, 15, 30, 60 and 120 minute intervals, aliquots of sufficient volume of the compound solutions were taken, diluted and analysed to determine the stability of Compound 17 in each solution, as well as the amount of Compound 1 present. The amount of Compound 1 present was compared to the amount expected assuming full conversion of Compound 17 to Compound 1.
(§7) The stability of Compounds 3, 6, 9, 20 and 23 was tested using the same methods as described above for Compound 17.

[2] = Stability in HCl buffer (pH 1.20), 37° C.; format: physicochemical; settings: HCl buffer pH 1.20, 37° C.
Description: 5 μM solutions of Compound 1 and Compound 4 (i.e. the citric acid salt of Compound 3) in HCl buffer (pH: 1.20) were prepared with 5 mM DMSO stock solutions.

[3] = mice; Das et al. 2019; cited from earlier work
[4] = Single dose oral pharmacokinetic study of Compounds 5, 6, 7, 9, 10, 13, 14, 16 and 17 in Sprague Dawley rats; format: in vivo
Description: 10.0 mL of 2% w/v methyl cellulose solution in phosphate buffer (pH 7.5) was added to a 100 mL conical flask along with 1 g of 2 mm glass beads. The solution was vigorously stirred on a magnetic stirrer. 100 mg of Compound 1 was slowly added to the solution, and the solution was vigorously stirred for approximately 1 h. The pH of the formulation was measured to be 7.49. Each formulation was freshly prepared prior to administration to the animals. The final concentration of Compound 1 in of the formulation was 10 mg/mL. The formulation was administered at 5 mL/kg body weight. […]
Adult healthy male Sprague Dawley rats aged 8 to 10 weeks were used for experimentation after a minimum three days of acclimatization. Fed state animals were administered the formulation of Compound 1 or Compound 3 orally via gavage at a dose of 50 mg/kg or 65 mg/kg body weight, respectively.
Under mild isoflurane anesthesia, blood specimens were collected by retro-orbital puncture method using capillary tubes into pre-labeled tubes containing anticoagulant (K2EDTA: 2 mg/mL blood) during the next 72 hours post-dosing, as detailed in Table 6. For blood sampling at multiple time points, the right and left eyes were used alternatively. Collected blood specimens were centrifuged at 6000 rpm, 4° C. for 10 minutes and the plasma samples were separated and stored at −80° C. until analysis.
Formulations were prepared in accordance with the method described in Example 19.
Doses equivalent to 50 mg/kg of Compound 1 were selected for comparison of equimolar doses.
The administration and blood sampling were performed as described in Example 19.
The results for the single dose oral pharmacokinetic study in rats are tabulated in Tables 7 and below and are shown graphically in FIG. 3. In Table 7, the Cmax, Tmax, AUClast, AUCinf, AUCextrap and T1/2 values are for 4-chloro-N-[2-[(4-chlorophenyl)methyl]-3-oxo-1,2,4-thiadiazol-5-yl]benzamide (Compound 1), which was detected following the administration of the compounds.

[5] = for % remaining after 15 min / % remaining after 30 min: buffer; for % remaining after 15 min: 0.25 h; for % remaining after 30 min: 0.5 h
Description: as §1, §2, §3, §4, §5, §6, §7

[6] = analyte Compound 1 in plasma, oral, dose equivalent to 50 mg/kg of Compound 1

NC(CC(=O)O)C(=O)OCn1c(=O)n(Cc2ccc(Cl)cc2)s/c1=N/C(=O)c1ccc(Cl)cc1 (centres unmarked) [Compound 17, Trifluoroacetate]
% remaining after 15 min ([1]; buffer pH 1.2): 76%
% remaining after 30 min ([1]; buffer pH 1.2): 82%
% remaining after 15 min ([1]; buffer pH 7.4): 0%
% remaining after 30 min ([1]; buffer pH 7.4): 0%
Percentage of Compound 17 remaining compared to 0 minutes ([1]; pH 1.20, 0.0 min): 100.00
Percentage of Compound 17 remaining compared to 0 minutes ([1]; pH 1.20, 15.0 min): 76.19
Percentage of Compound 17 remaining compared to 0 minutes ([1]; pH 1.20, 30.0 min): 82.37
Percentage of Compound 17 remaining compared to 0 minutes ([1]; pH 1.20, 60.0 min): 73.33
Percentage of Compound 17 remaining compared to 0 minutes ([1]; pH 1.20, 120.0 min): 79.04
stability at pH 1.2 (in words) ([1]; pH 1.2, Trifluoroacetate): greatest stability; also recorded: relatively stable
Percentage of Compound 17 remaining compared to 0 minutes ([1]; pH 7.40, 0.0 min): 100.00
Percentage of Compound 17 remaining compared to 0 minutes ([1]; pH 7.40, 15.0 min): 0.13
Percentage of Compound 17 remaining compared to 0 minutes ([1]; pH 7.40, 30.0 min): 0.39
Percentage of Compound 17 remaining compared to 0 minutes ([1]; pH 7.40, 60.0 min): 0.47
Percentage of Compound 17 remaining compared to 0 minutes ([1]; pH 7.40, 120.0 min): 2.33
stability at pH 7.40 and above (in words) ([1]; pH 7.40 / higher pH, Trifluoroacetate): degrade rapidly; also recorded: very low
Percentage of Compound 17 remaining compared to 0 minutes ([1]; pH 9.20, 0.0 min): 100.00
Percentage of Compound 17 remaining compared to 0 minutes ([1]; pH 9.20, 15.0 min): 0.00
Percentage of Compound 17 remaining compared to 0 minutes ([1]; pH 9.20, 30.0 min): 0.00
Percentage of Compound 17 remaining compared to 0 minutes ([1]; pH 9.20, 60.0 min): 0.00
Percentage of Compound 17 remaining compared to 0 minutes ([1]; pH 9.20, 120.0 min): 0.00

O=C(Nc1nc(=O)n(Cc2ccc(Cl)cc2)s1)c1ccc(Cl)cc1 [Compound 1, 4-chloro-N-[2-[(4-chlorophenyl)methyl]-3-oxo-1,2,4-thiadiazol-5-yl]benzamide, reference compound]
% remaining compared to 0.0 min ([2]; 0.0 min): 100.00%
% remaining compared to 0.0 min ([2]; 15 min): 71.32%
% remaining compared to 0.0 min ([2]; 30 min): 63.05%
% remaining compared to 0.0 min ([2]; 60 min): 58.77%
% remaining compared to 0.0 min ([2]; 120 min): 43.04%
treating pain (in words) [3]: effective at treating pain

2-({[5-(4-chlorobenzamido)-2-[(4-chlorophenyl)methyl]-3-oxo-1,2,4-thiadiazolidin-4-yl]methoxy}carbonyl)-1-methylpyrrolidine [Compound 10]
Plasma Concentration of Compound 1 ([4]; 0.00 h post-dose, oral, equivalent to 50 mg/kg of Compound 1): 0.00 µg/mL
Plasma Concentration of Compound 1 ([4]; 1.00 h post-dose): 76.70 µg/mL
Plasma Concentration of Compound 1 ([4]; 4.00 h post-dose): 106.37 µg/mL
Plasma Concentration of Compound 1 ([4]; 8.00 h post-dose): 100.53 µg/mL
Plasma Concentration of Compound 1 ([4]; 24.00 h post-dose): 26.77 µg/mL
AUCextrap [4, 6]: 17.81%
AUCinf [4, 6]: 2120.39 µg·h/mL
AUClast [4, 6]: 1745.15 µg·h/mL
Cmax [4, 6]: 114.03 µg/mL
T1/2 [4, 6]: 9.63 h
Tmax [4, 6]: 5.33 h

NCC(=O)OCn1c(=O)n(Cc2ccc(Cl)cc2)s/c1=N\C(=O)c1ccc(Cl)cc1 [Compound 9, Trifluoroacetate]
% remaining after 15 min ([1]; buffer pH 1.2): 100%
% remaining after 30 min ([1]; buffer pH 1.2): 100%
% remaining after 15 min ([1]; buffer pH 7.4): 46%
% remaining after 30 min ([1]; buffer pH 7.4): 13%

NCCCCC(N)C(=O)OCN1C(=O)N(Cc2ccc(Cl)cc2)SC1NC(=O)c1ccc(Cl)cc1.O=C(O)C(F)(F)F.O=C(O)C(F)(F)F (centres unmarked) [Compound 6, 6-{[5-(4-chlorobenzamido)-2-[(4-chlorophenyl)methyl]-3-oxo-1,2,4-thiadiazolidin-4-yl]methoxy}-6-oxohexane-1,5-bis(aminium) di-trifluoroacetate]
% remaining after 15 min ([1]; buffer pH 1.2): 83%
% remaining after 30 min ([1]; buffer pH 1.2): 86%
% remaining after 15 min ([1]; buffer pH 7.4): 33%
% remaining after 30 min ([1]; buffer pH 7.4): 33%

[azaniumyl({[(4S)-4-azaniumyl-4-[(2-{[5-(4-chlorobenzamido)-2-[(4-chlorophenyl)methyl]-3-oxo-1,2,4-thiadiazolidin-4-yl]methoxy}-2-oxoethyl)carbamoyl]butyl]amino})methylidene]azanium Trichloride [Compound 23]
% remaining after 15 min ([5]; pH 1.2): 78%
% remaining after 15 min ([5]; pH 7.4): 0%
% remaining after 30 min ([5]; pH 1.2): 77%
% remaining after 30 min ([5]; pH 7.4): 0%
stability at pH 1.2 (in words) ([5]; pH 1.2): relatively stable
stability at pH 7.40 and above (in words) ([5]; pH 7.4): degrade rapidly

CN(C)C(=N)N=C(N)N [metformin]
treating pain (in words) [3]: effective at treating pain
